# According to patent publication US20230105212A1, “BIPHENYL DERIVATIVE INHIBITOR, PREPARATION METHOD THEREFOR AND USE THEREOF” (SHANGHAI HANSOH BIOMEDICAL CO., LTD., priority 2020, published 2023):
# pEC50, pIC50: −log10 of the molar value.
# Key:
# [1] = biological target: T1, human PD-1/PD-L1 binding (Homo sapiens, UniProt Q9NZQ7); experiment: Inhibition of human PD-1/PD-L1 binding (TR-FRET/HTRF); details: TR-FRET, PD-L1-His and PD-1-Fc; read-out: PD-1/PD-L1 binding IC50
# T1 construct: PD-L1-His protein (19 to 238 amino acids) (Abcam #ab167713); purchased Abcam (PD-L1-His); R&D (PD-1-Fc) ab167713; 1086-PD
# T1 sequence (Q9NZQ7 19-238): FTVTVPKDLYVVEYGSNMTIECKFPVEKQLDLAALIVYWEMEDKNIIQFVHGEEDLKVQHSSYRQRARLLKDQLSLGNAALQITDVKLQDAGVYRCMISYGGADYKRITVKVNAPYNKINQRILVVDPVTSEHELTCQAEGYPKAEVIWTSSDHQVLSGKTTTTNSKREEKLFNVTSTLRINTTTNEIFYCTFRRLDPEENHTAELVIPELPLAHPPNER
# Procedure, shortened: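 PD-L1-His (aa 19–238, diluted to 10 nM) and PD-1-Fc (aa 25–167, diluted to 20 nM) incubated with compounds (10 μM or 1 μM top, 3-fold, 11 doses) 60 min at room temperature, then anti-6HIS Eu cryptate/anti-human IgG-XL665 added for 3 h RT or overnight 4 °C. HTRF 665/620 nm ratio gave inhibition and IC50.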
# [2] = tested on: CHO-PDL1/Jurkat-PD1 cell pathway; experiment: Inhibition of CHO-PDL1/Jurkat-PD1 cell pathway (NFAT luciferase reporter); type: cell-based; details: for pEC50: 6 hours incubation, luciferase signal; for maximal fold induction: relative to the signal value of the non-dosed group, read-out: Maximum induction fold
# Procedure: Test Embodiment 3. Inhibitory Effect of the Compounds of the Present Disclosure on CHO-PDL1/Jurkat-PD1 Cell Pathway
# Experimental purpose: The purpose of this test embodiment was to test the inhibitory effect of compounds on the CHO-PDL1/Jurkat-PD1 cell pathway.
# Experimental method: Two stably transfected cell lines were included in this experiment, CHO-K1 cells stably transfected with PD-L1 and Jurkat cells stably transfected with PD-1 and NFAT luciferase reporter genes. Compounds were incubated with the two cell lines. Then, due to the inhibitory effect on the PD-1/PD-L1 pathway, the activation degree of Jurkat cells changed, so that the level of the reporter gene NFAT in the downstream of Jurkat cells changed, and the level of NFAT was characterized by detecting the signal value of luciferase, so that the inhibitory effect of the test compound on CHO-PDL1/Jurkat-PD1 pathway was characterized.
# CHO-PDL1 cells (Promega, #J1252) were cultured to a suitable cell density. After digestion, the cells were resuspended by complete medium to become a suitable density of cell suspension. The cell suspension was plated 100 μL per well on a 96-well plate (Corning, #3610), and placed in a 37° C., 5% CO2 incubator and incubated overnight, and assay medium (RPMI 1640+2% FBS, RPMI 1640 Cat. No.: Gibco, #22400089, FBS Cat. No.: Gibco, #10091148) was used to prepare compound solutions of different concentrations. NFAT-luc2/PD1 Jurkat cells (Promega, #J1252) were collected and resuspended to the appropriate cell density using assay medium. The supernatant of the CHO-PDL1 cell culture plate was aspirated, and 40 μL of the prepared compound solution and 40 μL of resuspended NFAT-luc2/PD1 Jurkat cells were added, and incubated in a 5% CO2 incubator at 37° C. for 6 hours, and the cell plate was taken out, then 40 μL of One-Glo reagent (Promega, #E6120) was added to each well, shaked and mixed well, incubated in the dark at room temperature for 10 minutes, then put into a microplate reader and the luminescence program was used to read the luminescence value of the cell plate.
# The EC50 value was fitted according to the compound concentration and the luminescence signal value, and the maximum induction fold of each compound relative to the signal value of the non-dosed group was calculated, as shown in Table 3.
# [3] = biological target: T2, PD-L1 protein on the surface of MC38-hPDL1 tumor cells (Homo sapiens, UniProt Q9NZQ7); experiment: Induction of endocytosis of PD-L1 on the surface of tumor cells (flow cytometry); type: cell-based; details: 16 hours incubation; for Emax: MC38-hPDL1 cells, read-out: MC38 maximum endocytosis rate; for pIC50: inducing endocytosis of PD-L1, MC38-hPDL1 cells, read-out: MC38 IC50
# T2 construct: expressed in transfected cells; host or cells: MC38-hPDL1 (mouse colon cancer cells)
# T2 sequence (Q9NZQ7 19-290): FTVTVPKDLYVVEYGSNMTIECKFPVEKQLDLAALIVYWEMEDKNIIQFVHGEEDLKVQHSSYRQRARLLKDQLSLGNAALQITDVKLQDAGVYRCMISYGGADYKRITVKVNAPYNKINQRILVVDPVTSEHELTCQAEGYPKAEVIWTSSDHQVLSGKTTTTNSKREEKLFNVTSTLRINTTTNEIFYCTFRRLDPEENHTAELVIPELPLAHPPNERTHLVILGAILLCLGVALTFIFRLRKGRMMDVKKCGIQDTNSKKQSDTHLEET
# Procedure, shortened: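 MC38-hPDL1 mouse colon cancer cells overexpressing human PD-L1 were exposed to compound dilutions for 16 h at 37 °C. Surface PD-L1 was then stained with PE anti-human CD274 for 30 min at room temperature and measured by flow cytometry. Endocytosis rate versus concentration was fitted by nonlinear regression to give IC50.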
# [4] = biological target: T3, human PD-L1 protein (Homo sapiens, UniProt Q9NZQ7); experiment: Thermal shift: melting temperature of PD-L1 protein; type: binding; details: compound 10 μM, PD-L1 protein 2 μM, Tm minus DMSO vehicle control; read-out: ΔTm (° C.)
# T3 construct: purchased Acro Biosystems PD1-H5229
# T3 sequence (Q9NZQ7 19-238 limits assumed): as the sequence (Q9NZQ7 19-238) above
# Procedure, shortened: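 Human PD-L1 at 2 μM final was tested in […], 150 mM NaCl with SYPRO Orange, heated 25→95 °C at 0.03 °C/s in a PCR melt-curve run. Tm was taken per treatment; ΔTm is the shift relative to DMSO vehicle.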
# [5] = tested on: MC38-hPDL1 cells; experiment: In vitro cytotoxicity on MC38-hPDL1 cells (CellTiter-Glo); type: cell-based, mouse; details: for MC38-hPDL1 inhibition rate (%): 72 hours; for pIC50: Mus musculus, MC38-hPD-L1, 72 hours
# Procedure: (§1) Test Embodiment 5. In Vitro Cytotoxicity of the Compounds of the Present Disclosure on NFAT-Luc2/PD1 Jurkat Cells and MC38-hPDL1 Cells
# (§2) Experimental purpose: To test the in vitro cytotoxicity of compounds on NFAT-luc2/PD1 Jurkat cells and MC38-hPDL1 cells.
# (§3) When the cells were cultured to an appropriate degree of confluency, the cells were collected, and the cells was adjusted in an appropriate cell concentration by complete medium, then the cell suspension was plated in a 96-well plate, 90 μL per well, and put in a 37° C., 5% CO2 incubator overnight; compound solutions of different concentrations were prepared by DMSO and medium, and a vehicle control was set; compound solutions were added to a 96-well plate, 10 μL per well, and put in a 37° C., 5% CO2 incubator and cultured for 72 hours. After that, CellTiter-Glo solution was added, the mixture was shaken and mixed evenly, incubated in the dark for 10 minutes, and a BioTek Synergy H1 microplate reader was used for reading.
# (§4) Luminescence signal value was used to calculate the inhibition rate, and the concentration and inhibition rate were fitted by nonlinear regression curve using Graphpad Prism software to obtain IC50 values, as shown in the following table: […]
# [6] = tested on: NFAT-luc2/PD1 Jurkat cells; experiment: In vitro cytotoxicity on NFAT-luc2/PD1 Jurkat cells (CellTiter-Glo); type: cell-based; details: 72 hours; for pIC50: Homo sapiens, Jurkat
# Procedure: as §1, §2, §3, §4
pIC50 [1],Emax [3] [%],pIC50 [3],ΔTm at 10 µM [4] [°C],SMILES,pEC50 [2],maximal fold induction [2],MC38-hPDL1 inhibition rate (%) [5] [%],pIC50 [5],Jurkat-PD1 inhibition rate (%) [6] [%],pIC50 [6]
8.47,97,–,15,"COc1nc(-c2cccc(-c3cccc(NC(=O)c4nc5c(n4C)CCN(C)C5)c3Cl)c2Cl)ccc1CN1CC(CNC(C)=O)C1 [Embodiment 181, N-(3′-(5-((3-(Acetylaminomethyl)azetidin-1-yl)methyl)-6-methoxypyridin-2-yl)-2,2′-dichloro-[1,1′-biphenyl]-3-yl)-1,5-dimethyl-4,5,6,7-tetrahydro-1H-imidazo[4,5-c]pyridine-2-carboxamide]",7.23,–,–,–,–,–
8.15,96,–,16.7,"CNC(=O)C1CN(Cc2ccc(-c3cccc(-c4cccc(NC(=O)c5nc6c(n5C)CCN(C)C6)c4Cl)c3Cl)nc2OC)C1 [Embodiment 184, N-(2,2′-Dichloro-3′-(6-methoxy-5-((3-(methylcarbamoyl)azetidin-1-yl)methyl)pyridin-2-yl)-[1,1′-biphenyl]-3-yl)-1,5-dimethyl-4,5,6,7-tetrahydro-1H-imidazo[4,5-c]pyridine-2-carboxamide]",7.21,2.8,–,–,–,–
8.44,96,–,14.5,"COc1nc(-c2cccc(-c3cccc(NC(=O)c4nc5c(n4C)CCN(C)C5)c3Cl)c2Cl)ccc1CN1CC2(CCN(C(C)=O)C2)C1 [Embodiment 195, N-(3′-(5-((6-Acetyl-2,6-diazaspiro[3.4]octan-2-yl)methyl)-6-methoxypyridin-2-yl)-2,2′-dichloro-[1,1′-biphenyl]-3-yl)-1,5-dimethyl-4,5,6,7-tetrahydro-1H-imidazo[4,5-c]pyridine-2-carboxamide]",7.05,3.6,–,–,–,–
8.37,93,–,16,"COc1nc(-c2cccc(-c3cccc(NC(=O)c4nc5c(n4C)CCN(C)C5)c3Cl)c2Cl)ccc1CN1CCC2(CC1)CN(C(C)=O)C2 [Embodiment 197, N-(3′-(5-((2-Acetyl-2,7-diazaspiro[3.5]nonan-7-yl)methyl)-6-methoxypyridin-2-yl)-2,2′-dichloro-[1,1′-biphenyl]-3-yl)-1,5-dimethyl-4,5,6,7-tetrahydro-1H-imidazo[4,5-c]pyridine-2-carboxamide]",7.17,3.5,–,–,–,–

# Continued, compound first:
SMILES,pIC50 [1],Emax [3] [%],pIC50 [3],ΔTm at 10 µM [4] [°C],pEC50 [2],maximal fold induction [2],MC38-hPDL1 inhibition rate (%) [5] [%],pIC50 [5],Jurkat-PD1 inhibition rate (%) [6] [%],pIC50 [6]
"COc1cc(C(=O)Nc2cccc(-c3cccc(NC(=O)c4nc5c(n4C)CCN(C)C5)c3Cl)c2C)ncc1CNCCO [Embodiment 37, N-(2-Chloro-3′-(5-(((2-hydroxyethyl)amino)methyl)-4-methoxypicolinamido)-2′-methyl-[1,1′-biphenyl]-3-yl)-1,5-dimethyl-4,5,6,7-tetrahydro-1H-imidazo[4,5-c]pyridine-2-carboxamide]",8.82,97,9.22,–,7.20,4.8,–,–,–,–
"COc1cc(C(=O)Nc2cccc(-c3cccc(NC(=O)c4nc5c(n4C)CCN(C)C5)c3Cl)c2C)ncc1CNCCNC(C)=O [Embodiment 40, N-(3′-(5-(((2-Acetylaminoethyl)amino)methyl)-4-methoxypicolinamido)-2-chloro-2′-methyl-[1,1′-biphenyl]-3-yl)-1,5-dimethyl-4,5,6,7-tetrahydro-1H-imidazo[4,5-c]pyridine-2-carboxamide]",8.70,97,8.85,–,7.12,4,–,–,–,–
"COc1cc(-c2cccc(-c3cccc(NC(=O)c4nc5c(n4C)CCN(C)C5)c3Cl)c2C)ncc1CNC[C@@H]1CCC(=O)N1 [Embodiment 58, (S)—N-(2-Chloro-3′-(4-methoxy-5-((((5-carbonylpyrrolidin-2-yl)methyl)amino)methyl)pyridin-2-yl)-2′-methyl-[1,1′-biphenyl]-3-yl)-1,5-dimethyl-4,5,6,7-tetrahydro-1H-imidazo[4,5-c]pyridine-2-carboxamide]",8.82,94,8.29,–,7.00,3.5,–,–,–,–
"COc1nc(-c2cccc(-c3cccc(NC(=O)c4nc5c(n4C)CCN(C)C5)c3Cl)c2Cl)ccc1CN1CC2(CN(C=O)C2)C1 [Embodiment 193, N-(2,2′-Dichloro-3′-(5-((6-formyl-2,6-diazaspiro[3.3]heptan-2-yl)methyl)-6-methoxypyridin-2-yl)-[1,1′-biphenyl]-3-yl)-1,5-dimethyl-4,5,6,7-tetrahydro-1H-imidazo[4,5-c]pyridine-2-carboxamide]",8.19,96,–,12.3,7.08,2.8,–,–,–,–
"COc1nc(-c2cccc(-c3cccc(NC(=O)c4nc5c(n4C)CCN(C)C5)c3Cl)c2Cl)cnc1CN1CC(F)C1 [Embodiment 217, N-(2,2′-Dichloro-3′-(5-((3-fluoroazetidin-1-yl)methyl)-6-methoxypyrazin-2-yl)-[1,1′-biphenyl]-3-yl)-1,5-dimethyl-4,5,6,7-tetrahydro-1H-imidazo[4,5-c]pyridine-2-carboxamide]",–,96,8.85,13,–,–,67,5.15,79,5.27
"COc1nc(-c2cccc(-c3cccc(NC(=O)c4nc5c(n4C)CCN(C)C5)c3Cl)c2Cl)ncc1CN1CC2(C1)CN(C(C)=O)C2 [Embodiment 222, N-(3′-(5-((6-Acetyl-2,6-diazaspiro[3.3]heptan-2-yl)methyl)-4-methoxypyrimidin-2-yl)-2,2′-dichloro-[1,1′-biphenyl]-3-yl)-1,5-dimethyl-4,5,6,7-tetrahydro-1H-imidazo[4,5-c]pyridine-2-carboxamide]",8.28,92,–,–,–,–,0,< 5.00,36,< 5.00
"COc1nc(-c2cccc(-c3cccc(NC(=O)c4nc5c(n4C4CC4)CCN(C)C5)c3Cl)c2Cl)ccc1CN1CC2(C1)CN(C(C)=O)C2 [Embodiment 243, N-(3′-(5-((6-Acetyl-2,6-diazaspiro[3.3]heptan-2-yl)methyl)-6-methoxypyridin-2-yl)-2,2′-dichloro-[1,1′-biphenyl]-3-yl)-1-cyclopropyl-5-methyl-4,5,6,7-tetrahydro-1H-imidazo[4,5-c]pyridine-2-carboxamide]",8.08,91,–,–,7.13,3.1,–,–,–,–
